Results: patent US8853146B2, “Hapten compounds and compositions and uses thereof” (The Board of Trustees of the University of Arkansas, priority 2007, dated 2014)

Columns and labels:
Design in all cases: species or system mouse
Details in all cases: RIA IC50 value for METH/RIA IC50 value for test ligand
mAb6H8 = assay: RIA cross-reactivity profile, inhibition of [3H]-(+)METH binding to mAb6H8
Description: (§1) KD values for mAb were determined by the method of Akera and Cheng (1977, Biochim Biophys Acta 470:412-423).

mAb4G9 = assay: RIA cross-reactivity profile, inhibition of [3H]-(+)METH binding to mAb4G9
Description: as §1

mAb6H4 = assay: RIA cross-reactivity profile, inhibition of [3H]-(+)METH binding to mAb6H4
Description: as §1

In the case of `CC(N)Cc1ccccc1` (single isomer, unassigned; (+)) [(+)AMP, (+)-amphetamine], the “Antibody Specificity (Relative Potency to METH), mAb6H8” value (mAb6H8) is reported as 0.023, the “Antibody Specificity (Relative Potency to METH), mAb4G9” value (mAb4G9) is reported as 0.34 and the “Antibody Specificity (Relative Potency to METH), mAb6H4” value (mAb6H4) is reported as 0.001.
In the case of `CC(N)Cc1ccc2c(c1)OCO2` (single isomer, unassigned; (+)) [(+)MDA], the “Antibody Specificity (Relative Potency to METH), mAb6H8” value (mAb6H8) is reported as 0.024, the “Antibody Specificity (Relative Potency to METH), mAb4G9” value (mAb4G9) is reported as 0.090 and the “Antibody Specificity (Relative Potency to METH), mAb6H4” value (mAb6H4) is reported as 0.001.
In the case of `CNC(C)Cc1ccc2c(c1)OCO2` (single isomer, unassigned; (+)) [(+)MDMA, (+)-3,4-methylenedioxymethamphetamine], the “Antibody Specificity (Relative Potency to METH), mAb6H8” value (mAb6H8) is reported as 3.40, the “Antibody Specificity (Relative Potency to METH), mAb4G9” value (mAb4G9) is reported as 0.29 and the “Antibody Specificity (Relative Potency to METH), mAb6H4” value (mAb6H4) is reported as 1.25.
In the case of `CC(N)C(O)c1ccccc1` (single isomer, unassigned; (+)) [(+)phenylpropanolamine], the “Antibody Specificity (Relative Potency to METH), mAb6H8” value (mAb6H8) is reported as <0.001, the “Antibody Specificity (Relative Potency to METH), mAb4G9” value (mAb4G9) is reported as <0.001 and the “Antibody Specificity (Relative Potency to METH), mAb6H4” value (mAb6H4) is reported as <0.001.
`CC(N)Cc1ccccc1` (single isomer, unassigned; (-)) [(−)AMP, (−)amphetamine] was tested, and the “Antibody Specificity (Relative Potency to METH), mAb6H8” value (mAb6H8) was 0.003, the “Antibody Specificity (Relative Potency to METH), mAb4G9” value (mAb4G9) was 0.063 and the “Antibody Specificity (Relative Potency to METH), mAb6H4” value (mAb6H4) was <0.001.
In the case of `CC(N)Cc1ccc2c(c1)OCO2` (single isomer, unassigned; (-)) [(−)MDA], the “Antibody Specificity (Relative Potency to METH), mAb6H8” value (mAb6H8) is reported as <0.001, the “Antibody Specificity (Relative Potency to METH), mAb4G9” value (mAb4G9) is reported as 0.002 and the “Antibody Specificity (Relative Potency to METH), mAb6H4” value (mAb6H4) is reported as <0.001.
For `CNC(C)Cc1ccc2c(c1)OCO2` (single isomer, unassigned; (-)) [(−)MDMA], the “Antibody Specificity (Relative Potency to METH), mAb6H8” value (mAb6H8) was 0.018, the “Antibody Specificity (Relative Potency to METH), mAb4G9” value (mAb4G9) was 0.011 and the “Antibody Specificity (Relative Potency to METH), mAb6H4” value (mAb6H4) was 0.007.
With `CNC(C)Cc1ccc(O)cc1` (stereo not drawn) [4-OH-METH] the “Antibody Specificity (Relative Potency to METH), mAb6H8” value (mAb6H8) was 0.294, the “Antibody Specificity (Relative Potency to METH), mAb4G9” value (mAb4G9) was 0.106 and the “Antibody Specificity (Relative Potency to METH), mAb6H4” value (mAb6H4) was 0.588.
`CN[C@H](C)[C@@H](O)c1ccccc1` [(+)ephedrine] was tested, and the “Antibody Specificity (Relative Potency to METH), mAb6H8” value (mAb6H8) was <0.001, the “Antibody Specificity (Relative Potency to METH), mAb4G9” value (mAb4G9) was <0.001 and the “Antibody Specificity (Relative Potency to METH), mAb6H4” value (mAb6H4) was <0.001.
With `NCCc1ccc(O)c(O)c1` [dopamine] the “Antibody Specificity (Relative Potency to METH), mAb6H8” value (mAb6H8) was <0.001, the “Antibody Specificity (Relative Potency to METH), mAb4G9” value (mAb4G9) was <0.001 and the “Antibody Specificity (Relative Potency to METH), mAb6H4” value (mAb6H4) was <0.001.
With `CNC[C@H](O)c1ccc(O)c(O)c1` [epinephrine] the “Antibody Specificity (Relative Potency to METH), mAb6H8” value (mAb6H8) was <0.001, the “Antibody Specificity (Relative Potency to METH), mAb4G9” value (mAb4G9) was <0.001 and the “Antibody Specificity (Relative Potency to METH), mAb6H4” value (mAb6H4) was <0.001.
For `CNC[C@H](O)c1cccc(O)c1` [l-phenylphrine], the “Antibody Specificity (Relative Potency to METH), mAb6H8” value (mAb6H8) was <0.001, the “Antibody Specificity (Relative Potency to METH), mAb4G9” value (mAb4G9) was <0.001 and the “Antibody Specificity (Relative Potency to METH), mAb6H4” value (mAb6H4) was 0.001.
For `NC[C@H](O)c1ccc(O)c(O)c1` [norepinepherine], the “Antibody Specificity (Relative Potency to METH), mAb6H8” value (mAb6H8) was <0.001, the “Antibody Specificity (Relative Potency to METH), mAb4G9” value (mAb4G9) was <0.001 and the “Antibody Specificity (Relative Potency to METH), mAb6H4” value (mAb6H4) was <0.001.
`NCCc1c[nH]c2ccc(O)cc12` [serotonin] was tested, and the “Antibody Specificity (Relative Potency to METH), mAb6H8” value (mAb6H8) was <0.001, the “Antibody Specificity (Relative Potency to METH), mAb4G9” value (mAb4G9) was <0.001 and the “Antibody Specificity (Relative Potency to METH), mAb6H4” value (mAb6H4) was <0.001.
In the case of `NCCc1ccc(O)cc1` [tyramine], the “Antibody Specificity (Relative Potency to METH), mAb6H8” value (mAb6H8) is reported as <0.001, the “Antibody Specificity (Relative Potency to METH), mAb4G9” value (mAb4G9) is reported as <0.001 and the “Antibody Specificity (Relative Potency to METH), mAb6H4” value (mAb6H4) is reported as <0.001.
With `NCCc1ccccc1` [β-phenylethylamine] the “Antibody Specificity (Relative Potency to METH), mAb6H8” value (mAb6H8) was <0.001, the “Antibody Specificity (Relative Potency to METH), mAb4G9” value (mAb4G9) was 0.001 and the “Antibody Specificity (Relative Potency to METH), mAb6H4” value (mAb6H4) was <0.001.
In the case of (+)norpseudoephedrine, the “Antibody Specificity (Relative Potency to METH), mAb6H8” value (mAb6H8) is reported as <0.001, the “Antibody Specificity (Relative Potency to METH), mAb4G9” value (mAb4G9) is reported as <0.001 and the “Antibody Specificity (Relative Potency to METH), mAb6H4” value (mAb6H4) is reported as <0.001.
(+)pseudoephedrine was tested, and the “Antibody Specificity (Relative Potency to METH), mAb6H8” value (mAb6H8) was 0.018, the “Antibody Specificity (Relative Potency to METH), mAb4G9” value (mAb4G9) was 0.004 and the “Antibody Specificity (Relative Potency to METH), mAb6H4” value (mAb6H4) was <0.001.
With (−)-methamphetamine [(−)METH] the “Antibody Specificity (Relative Potency to METH), mAb6H8” value (mAb6H8) was 0.011, the “Antibody Specificity (Relative Potency to METH), mAb4G9” value (mAb4G9) was 0.102 and the “Antibody Specificity (Relative Potency to METH), mAb6H4” value (mAb6H4) was 0.030.
